Measured values taken from patent publication US20250230193A1, “CYCLIC COMPOUND HAVING SELECTIVE KRAS INHIBITORY EFFECT ON HRAS AND NRAS” (CHUGAI SEIYAKU KABUSHIKI KAISHA, priority 2022, published 2025).

Assays:
[1] = molecular target: GDP-bound HRAS wild-type protein (Homo sapiens, UniProt P01112); experiment: Binding to HRAS by surface plasmon resonance (SPR), Single Cycle Kinetics; details: KD ratio HRAS/KRAS, SPR
[2] = molecular target: GDP-bound NRAS wild-type protein (Homo sapiens, UniProt P01111); experiment: Binding to NRAS by surface plasmon resonance (SPR), Single Cycle Kinetics; details: KD ratio NRAS/KRAS, SPR
Sequence of GDP-bound NRAS wild-type protein (P01111 whole entry): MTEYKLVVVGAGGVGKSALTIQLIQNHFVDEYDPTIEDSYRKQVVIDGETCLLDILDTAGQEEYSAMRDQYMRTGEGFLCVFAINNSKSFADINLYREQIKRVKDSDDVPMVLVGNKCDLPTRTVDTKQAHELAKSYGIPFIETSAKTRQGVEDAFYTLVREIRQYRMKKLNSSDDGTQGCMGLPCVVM

Sequence of GDP-bound HRAS wild-type protein (P01112 whole entry): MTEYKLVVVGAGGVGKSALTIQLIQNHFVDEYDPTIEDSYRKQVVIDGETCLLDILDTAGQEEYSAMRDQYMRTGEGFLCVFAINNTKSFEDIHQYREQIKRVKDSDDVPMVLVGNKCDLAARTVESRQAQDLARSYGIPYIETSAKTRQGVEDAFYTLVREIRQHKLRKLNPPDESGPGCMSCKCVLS

Row | Structure (SMILES) | HRAS/KRAS (ratio of KD value with respect to GDP-bound HRAS wild-type protein to KD value with respect to KRAS) [1] | NRAS/KRAS (ratio of KD value with respect to GDP-bound NRAS wild-type protein to KD value with respect to KRAS) [2]
1 | CC[C@H](C)[C@@H]1NC(=O)[C@H](CC(C)C)N(C)C(=O)C[C@@H](C(=O)N2CCOCC2)N(C)C(=O)[C@H](C2CCCC2)N(C)C(=O)C2(CCCC2)NC(=O)[C@@H]2CCCN2C(=O)[C@H](CCc2ccc(C(F)(F)F)c(Cl)c2)NC(=O)CN(C)C(=O)[C@H](Cc2ccc(C(F)(F)F)cc2)N2CC=CC[C@@H](C2=O)N(C)C(=O)CN(C)C1=O [PP0462] | C (A compound having a KD ratio of 0.1 or more and less than 3 is denoted as C) | C (A compound having a KD ratio of 0.1 or more and less than 3 is denoted as C)
2 | CC[C@H](C)[C@@H]1NC(=O)[C@H](CC(C)C)N(C)C(=O)C[C@@H](C(=O)N2CCOCC2)N(C)C(=O)[C@H](C2CCCC2)N(C)C(=O)C2(CCCC2)NC(=O)[C@@H]2CCCN2C(=O)[C@H](CCc2ccc(C(F)(F)F)c(Cl)c2)NC(=O)CN(C)C(=O)[C@H](Cc2ccc(C(F)(F)F)cc2)N2CC/C=C\C[C@@H](C2=O)N(C)C(=O)CN(C)C1=O [PP0463] | A (a compound having 10 or more and less than 20 is denoted as A) | A (a compound having 10 or more and less than 20 is denoted as A)
3 | CC[C@H](C)[C@@H]1NC(=O)[C@H](CC(C)C)N(C)C(=O)C[C@@H](C(=O)N(C)C)N(C)C(=O)[C@H](C2CCCC2)N(C)C(=O)C2(CCCC2)NC(=O)[C@@H]2CC(F)(F)CN2C(=O)[C@H](CCc2cc(F)c(C(F)(F)F)c(F)c2)NC(=O)CN(C)C(=O)[C@H](Cc2ccc(C(F)(F)F)cc2)N2CCCCC[C@@H](C2=O)N(C)C(=O)CN(C)C1=O [PP0465] | B (a compound having 3 or more and less than 10 is denoted as B) | B (a compound having 3 or more and less than 10 is denoted as B)
4 | CC[C@H](C)[C@@H]1NC(=O)[C@H](CC(C)C)N(C)C(=O)C[C@@H](C(=O)N(C)C)N(C)C(=O)[C@H](C2CCCC2)N(C)C(=O)C2(CCC2)NC(=O)[C@@H]2CC(F)(F)CN2C(=O)[C@H](CCc2cc(F)c(C(F)(F)F)c(F)c2)NC(=O)CN(C)C(=O)[C@H](Cc2ccc(C(F)(F)F)cc2)N2CCCCC[C@@H](C2=O)N(C)C(=O)CN(C)C1=O [PP0466] | B (a compound having 3 or more and less than 10 is denoted as B) | B (a compound having 3 or more and less than 10 is denoted as B)
5 | CCO[C@@H]1C[C@H]2C(=O)NC3(CCC3)C(=O)N(C)[C@@H](C3CCCC3)C(=O)N(C)[C@H](C(=O)N3CCOCC3)CC(=O)N(C)[C@@H](CC(C)C)C(=O)N[C@@H]([C@@H](C)CC)C(=O)N(C)CC(=O)N(C)[C@H]3CCCCCN(C3=O)[C@@H](Cc3ccc(C(F)(F)F)cc3)C(=O)N(C)CC(=O)N[C@@H](CCc3cc(F)c(C(F)(F)F)c(F)c3)C(=O)N2C1 [PP0467] | B (a compound having 3 or more and less than 10 is denoted as B) | B (a compound having 3 or more and less than 10 is denoted as B)
6 | CCO[C@@H]1C[C@H]2C(=O)NC3(CCCC3)C(=O)N(C)[C@@H](C3CCCC3)C(=O)N(C)[C@H](C(=O)N(C)C)CC(=O)N(C)[C@@H](CC(C)C)C(=O)N[C@@H]([C@@H](C)CC)C(=O)N(C)CC(=O)N(C)[C@H]3CCCCCN(C3=O)[C@@H](Cc3ccc(C(F)(F)F)cc3)C(=O)N(C)CC(=O)N[C@@H](CCc3cc(F)c(C(F)(F)F)c(F)c3)C(=O)N2C1 [PP0468] | B (a compound having 3 or more and less than 10 is denoted as B) | B (a compound having 3 or more and less than 10 is denoted as B)
7 | CCO[C@@H]1C[C@H]2C(=O)NC3(CCC3)C(=O)N(C)[C@@H](C3CCCC3)C(=O)N(C)[C@H](C(=O)N(C)C)CC(=O)N(C)[C@@H](CC(C)C)C(=O)N[C@@H]([C@@H](C)CC)C(=O)N(C)CC(=O)N(C)[C@H]3CCCCCN(C3=O)[C@@H](Cc3ccc(C(F)(F)F)cc3)C(=O)N(C)CC(=O)N[C@@H](CCc3cc(F)c(C(F)(F)F)c(F)c3)C(=O)N2C1 [PP0469] | B (a compound having 3 or more and less than 10 is denoted as B) | B (a compound having 3 or more and less than 10 is denoted as B)
8 | CC[C@H](C)[C@@H]1NC(=O)[C@H](C)N(C)C(=O)C[C@@H](C(=O)N(C)C)N(C)C(=O)[C@H](C2CCCC2)N(C)C(=O)C2(CCC2)NC(=O)[C@@H]2CCCN2C(=O)[C@H](CCc2cc(F)c(C(F)(F)F)c(F)c2)NC(=O)CN(C)C(=O)[C@H](Cc2ccc(C(F)(F)F)cc2)N2CCCCC[C@@H](C2=O)N(C)C(=O)CN(C)C1=O [PP0470] | B (a compound having 3 or more and less than 10 is denoted as B) | B (a compound having 3 or more and less than 10 is denoted as B)
9 | CC[C@H](C)[C@@H]1NC(=O)[C@H](C)N(C)C(=O)C[C@@H](C(=O)N2CCOCC2)N(C)C(=O)[C@H](C2CCCC2)N(C)C(=O)C2(CCC2)NC(=O)[C@@H]2CC(F)(F)CN2C(=O)[C@H](CCc2cc(F)c(C(F)(F)F)c(F)c2)NC(=O)CN(C)C(=O)[C@H](Cc2ccc(C(F)(F)F)cc2)N2CCCCC[C@@H](C2=O)N(C)C(=O)CN(C)C1=O [PP0471] | B (a compound having 3 or more and less than 10 is denoted as B) | B (a compound having 3 or more and less than 10 is denoted as B)
10 | CC[C@H](C)[C@@H]1NC(=O)[C@H](C)N(C)C(=O)C[C@@H](C(=O)N(C)C)N(C)C(=O)[C@H](C2CCCC2)N(C)C(=O)C2(CCCC2)NC(=O)[C@@H]2CC(F)(F)CN2C(=O)[C@H](CCc2cc(F)c(C(F)(F)F)c(F)c2)NC(=O)CN(C)C(=O)[C@H](Cc2ccc(C(F)(F)F)cc2)N2CCCCC[C@@H](C2=O)N(C)C(=O)CN(C)C1=O [PP0472] | B (a compound having 3 or more and less than 10 is denoted as B) | B (a compound having 3 or more and less than 10 is denoted as B)
11 | CC[C@H](C)[C@@H]1NC(=O)[C@H](C)N(C)C(=O)C[C@@H](C(=O)N(C)C)N(C)C(=O)[C@H](C2CCCC2)N(C)C(=O)C2(CCC2)NC(=O)[C@@H]2CC(F)(F)CN2C(=O)[C@H](CCc2cc(F)c(C(F)(F)F)c(F)c2)NC(=O)CN(C)C(=O)[C@H](Cc2ccc(C(F)(F)F)cc2)N2CCCCC[C@@H](C2=O)N(C)C(=O)CN(C)C1=O [PP0473] | C (A compound having a KD ratio of 0.1 or more and less than 3 is denoted as C) | C (A compound having a KD ratio of 0.1 or more and less than 3 is denoted as C)
12 | CCO[C@@H]1C[C@H]2C(=O)NC3(CCC3)C(=O)N(C)[C@@H](C3CCCC3)C(=O)N(C)[C@H](C(=O)N3CCOCC3)CC(=O)N(C)[C@@H](C)C(=O)N[C@@H]([C@@H](C)CC)C(=O)N(C)CC(=O)N(C)[C@H]3CCCCCN(C3=O)[C@@H](Cc3ccc(C(F)(F)F)cc3)C(=O)N(C)CC(=O)N[C@@H](CCc3cc(F)c(C(F)(F)F)c(F)c3)C(=O)N2C1 [PP0474] | B (a compound having 3 or more and less than 10 is denoted as B) | B (a compound having 3 or more and less than 10 is denoted as B)
13 | CCO[C@@H]1C[C@H]2C(=O)NC3(CCCC3)C(=O)N(C)[C@@H](C3CCCC3)C(=O)N(C)[C@H](C(=O)N(C)C)CC(=O)N(C)[C@@H](C)C(=O)N[C@@H]([C@@H](C)CC)C(=O)N(C)CC(=O)N(C)[C@H]3CCCCCN(C3=O)[C@@H](Cc3ccc(C(F)(F)F)cc3)C(=O)N(C)CC(=O)N[C@@H](CCc3cc(F)c(C(F)(F)F)c(F)c3)C(=O)N2C1 [PP0475] | B (a compound having 3 or more and less than 10 is denoted as B) | B (a compound having 3 or more and less than 10 is denoted as B)
14 | CCO[C@@H]1C[C@H]2C(=O)NC3(CCC3)C(=O)N(C)[C@@H](C3CCCC3)C(=O)N(C)[C@H](C(=O)N(C)C)CC(=O)N(C)[C@@H](C)C(=O)N[C@@H]([C@@H](C)CC)C(=O)N(C)CC(=O)N(C)[C@H]3CCCCCN(C3=O)[C@@H](Cc3ccc(C(F)(F)F)cc3)C(=O)N(C)CC(=O)N[C@@H](CCc3cc(F)c(C(F)(F)F)c(F)c3)C(=O)N2C1 [PP0476] | B (a compound having 3 or more and less than 10 is denoted as B) | B (a compound having 3 or more and less than 10 is denoted as B)
15 | CC[C@H](C)[C@@H]1NC(=O)[C@H](CC(C)C)N(C)C(=O)C[C@@H](C(=O)N2CCOCC2)N(CC)C(=O)[C@H](C2CCCC2)N(C)C(=O)C2(CCCC2)NC(=O)[C@@H]2CCCN2C(=O)[C@H](CCc2cc(F)c(C(F)(F)F)c(F)c2)NC(=O)CN(C)C(=O)[C@H](Cc2ccc(C(F)(F)F)cc2)N2CCCCC[C@@H](C2=O)N(C)C(=O)CN(C)C1=O [PP0477] | A (a compound having 10 or more and less than 20 is denoted as A) | A (a compound having 10 or more and less than 20 is denoted as A)
16 | CC[C@H](C)[C@@H]1NC(=O)[C@H](CC(C)C)N(C)C(=O)C[C@@H](C(=O)N2CCOCC2)NC(=O)[C@H](C2CCCC2)N(C)C(=O)C2(CCCC2)NC(=O)[C@@H]2CCCN2C(=O)[C@H](CCc2cc(F)c(C(F)(F)F)c(F)c2)NC(=O)CN(C)C(=O)[C@H](Cc2ccc(C(F)(F)F)cc2)N2CCCCC[C@@H](C2=O)N(C)C(=O)CN(C)C1=O [PP0479] | B (a compound having 3 or more and less than 10 is denoted as B) | B (a compound having 3 or more and less than 10 is denoted as B)
